How the values were obtained:
myelin-ECs (BMECs) = experiment: Myelin degradation into neutral lipids (Oil Red O staining) in myelin-BMECs after autophagy drug treatment; assay type: cell-based, mouse; conditions: 3-MA 2 mM 48 hr (1 mM elsewhere in the source), chloroquine 10 μM 24 hr, rapamycin 1 μM 24 hr
Method: Oil Red O (ORO) staining. ORO staining was performed to detect intracellular neutral lipid accumulation in injured spinal cords and cultured BMECs. Spinal frozen sections or fixed cells were dehydrated in 100% propylene glycol for 5 min, then stained with 0.5% ORO solution at 60° C. for 8 min. The samples were then processed with 85% propylene glycol for 5 min followed by distilled water rinsing for 3 times. Stained samples were imaged with a confocal laser scanning microscope. Starvation and drug treatments for autophagy assays. BMECs cultured with 5% FBS containing medium were used as negative control for autophagy. The positive control for autophagy induction, BMECs, were starved with Hanks Balanced Salt Solution for 6 hr to induce autophagy. 10 μM chloroquine, an inhibitor of lysosomes, or 1 μM of rapamycin, an inducer of autophagy, was added to BMECs cultures for 24 hr after myelin debris treatment. 2 mM of 3-MA, a PI3K inhibitor of autophagy was cultured with ECs for 48 hr, starting from the last 24 hr treatment of myelin debris to the subsequent 24 hr of medium wash. Cells grown on coverslips were fixed and stained with Oil Red 0 for detection of myelin-derived lipids as above described.

BMECs [1] = conditions: 1 mM 3-MA (48 hr), 10 μM chloroquine (24 hr)
Method: Propidium iodide (PI) staining assay for cell death analysis. Wild-type BMECs or Atg5 knockout BMECs were cultured with DMEM medium containing 5% FBS in 24-well plate. To test the toxicity of different autophagy-related drugs, BMECs were treated with or without myelin debris and were treated with or without 1 mM 3-MA (48 hr), 10 μM chloroquine (24 hr), or 1 μM rapamycin (24 hr). After reaching 70% confluence, cells were washed with 1×PBS and fixed with 4% PFA. The fixed cells were stained with propidium iodide and Hoechst, followed by imaging and quantification of PI positive nucleus using Nikon Element software.

BMECs [2] = experiment: In vitro endothelial-to-mesenchymal transition (endoMT) assays; assay type: cell-based, mouse; conditions: TGF-β1 10 ng/ml
Method: In vitro endothelial-to-mesenchymal transition (endoMT) assays. 5×10^3 BMECs were seeded in 24-well plate for endoMT induction. As positive control, recombinant TGF-β1 protein ([…]) was added to BMECs for 72 hr to induce in vitro endoMT. Cells were considered spindle-shaped when the diameter at their longest axis to be 1.5-fold greater than the average diameter of untreated cobblestone BMECs. Myelin debris (1 mg/ml) was added to BMECs for 1, 3, 5, 7, and 10 days and culture medium was changed every 3 days, followed by morphological observation of spindle-shape cells. α-SMA staining was used to confirm the mesenchymal transition. Percentage of spindle-shaped cells and percentage of a-SMA^+/CD31^+ were quantified. To examine the role of TGF-β in myelin-induced endoMT, pan TGF-β neutralizing antibody (20 μg/ml) was added to BMECs together with myelin debris for 10 days and re-supplemented every 3 days.

[3] = q-PCR, immunostaining and western blot

Cn1cnc(N)c2ncnc1-2 [3-MA, 3-methyladenine]
myelin degradation into neutral lipids (ORO+ lipids) in myelin-ECs (myelin-ECs (BMECs)): significantly inhibited myelin degradation into neutral lipids

CCN(CC)CCCC(C)Nc1ccnc2cc(Cl)ccc12 (stereo not drawn) [chloroquine]
myelin degradation into neutral lipids (ORO+ lipids) in myelin-ECs (myelin-ECs (BMECs)): significantly inhibited myelin degradation into neutral lipids | cell toxicity (cell death by PI staining) (BMECs [1]): without causing apparent cell toxicity

TGF-β1: Recombinant mouse TGF-β1 (#5231), positive control, strong inducer of endoMT
BMEC morphology (induction of endoMT) (BMECs [2]; 3 days): elongated and exhibited the same spindle-like morphology as fibroblasts | CD31 expression in BMECs (BMECs [2]; [3]): markedly downregulated CD31 expression | a-SMA expression in BMECs (BMECs [2]; [3]): strongly induced a-SMA expression
